This assay deals with Conditioned Avoidance Responding (Rat). Briefly: Block of Conditioned Avoidance Responding (Rat) test (CAR). It counts as in vivo, Male Fischer 344 rats. The note with it: for % escape loss: group mean % failures to escape; for % Inhibition CAR: mean % change in CAR vs vehicle day, negative = blockade. From the text:
The antipsychotic activity of the compounds of the invention may be determined by the Block of Conditioned Avoidance Responding (Rat) test (CAR), the references being Cook, L. and E. Weidley in Ann. […] P. Reynolds Trends Pharmacol. Sci. 1992, 13, 116). […] Block of Conditioned Avoidance Responding (Rat) Apparatus: Rat operant chambers, housed within sound attenuated booths, both from […] Instruments Ltd., were used in this test. The test chamber (8" H×903/8" W×9" D) is constructed of aluminum and plexiglass with floor grid bars of stainless-steel (1/8" O.D.) spaced 9/16" apart. A stainless-steel operation level 11/2" wide projects 3/4" into the chamber and is positioned 2-2/8" above the grid floor. The shock stimulus is delivered via the grid floor by a Coulbourn Instruments solid state module. The parameters of the test and the collection of data are controlled automatically. Training: Male, Fischer 344 rats obtained from Charles River (Kingston, N.Y.) weighing more than 200 g, are individually housed with chow and water provided ad libitum. The rats are trained for two weeks to approach criterion levels in the avoidance test (90% avoidance rate). One-hour training sessions are run at about the same time each day for four or five days a week. The training session consists of 120 tdals, with the conditioned stimuli presented every 30 sec. A trial begins with presentation of the conditioned stimuli (a light and a tone). If the rat responds by depressing the operant lever during the 15-second presentation of the conditioned stimuli, the trial is terminated .and the animal is credited with a CAR. Failure to respond during the conditioned stimuli causes the presentation of the unconditioned stimulus (UCS), a 0.7 mA shock which is accompanied by a light and tone for […]. If the rat depressed the lever within the ten-second period, the shock and trial are terminated and an escape response recorded. If the rat fails to depress the lever during the UCS (shock), the trial is terminated after ten seconds of shock and the absence of a response is scored as a failure to escape. […] presses have no effect. If a rat performs at the 90% CAR level for two weeks, it is then run twice a week on the test schedule (see below) until baseline performance stabilized. Before any drug is administered, two weeks of CAR at a rate of 90% or better is required. Determination of ED50 Values Trained rats are run in a one-hour session on two consecutive days at the same time and in the same test chamber each day. The sessions consist of 60 trials, one every minute. The conditioned stimuli are presented for 15 sec (maximum) and the unconditioned stimuli five sec (maximum). On Day 1, a vehicle solution is administered to the rats at a time preceding the trial run corresponding to the pretreatment time for the test compound. The route of administration and the volume of vehicle are also matched to that of the test compound. […] The percent change in CAR on the drug treatment day compared to vehicle pretreatment day is the key measure. The percent change (% change) in CAR is determined using the following formula: % change CAR=((Day 2% CAR/Day 1% CAR)×100)-100 A negative number indicates a blockade of CAR, whereas a positive number would indicate increased CAR. The test results are reported as the mean % change for the group of rats. A reading of -20% is generally taken to represent a minimum value for a compound to be designated as active at a given dose in the CAR test. Failure to escape was calculated for each animal as follows: % Failures=# of Failures to Escape/# of trials The % failures, viz., loss of escape, is also reported as a group mean. Failures to escape are monitored closely and a session is terminated if ten failures occurred. ED50 values and 95% confidence limits are calculated using linear regression analysis.

Here are results for 7 molecules from patent publication US5332732A, “Thiophene and pyridine antipsychotic agents” (McNeilab, Inc., priority 1992, dated 1994).

Structures can show the parent of a compound that is named as a salt.

As to `CC(C)Oc1ccccc1N1CCN(Cc2ccc(C(=O)N3CCCCC3)s2)CC1.O=C(O)/C=C/C(=O)O` [CP #1, 1-[[5-[[1-[2-(1-Methylethoxy)phenyl]-4-piperazinyl]methyl]-2-thienyl]carbonyl]piperidine Fumarate], where the note is “5 mpk, PI”, the “% escape loss” value is 18% and the “% Inhibition CAR” value was -56%.
On to `CC(C)Oc1ccccc1N1CCN(Cc2cc(C(=O)N3CCCCC3)cs2)CC1.Cl` [CP #2, 1-[[5-[[1-[2-(1-Methylethoxy)phenyl]-4-piperazinyl]methyl]-3-thienyl]carbonyl]piperidine Monohydrochloride], for which, where the note is “5 mpk, PI”, the “% escape loss” value was determined as 34% and the “% Inhibition CAR” value is listed as -72%.
Take `CC(C)Oc1ccccc1N1CCN(Cc2ccc(C(=O)N3CCCCCC3)s2)CC1` [CP #3, Hexahydro-1-[[5-[[1-[2-(1-methylethoxy)phenyl]-4-piperazinyl]methyl]2-thienyl]carbonyl]-1H-azepine Monohydrochloride Hemi Hydrate]: under “5 mpk, PI”, the “% escape loss” value was 3% and the “% Inhibition CAR” value was -8%.
Regarding `CC(C)Oc1ccccc1N1CCN(Cc2cc(C(=O)N3CCCCCC3)cs2)CC1` [CP #4, Hexahydro-1-[5-[[-1-[2-(1-Methylethoxy)phenyl-4-piperazinyl]methyl]-3-thienyl]carbonyl]-1-H-azepine Hydrochloride Hydrate], for the setting “5 mpk, PI”, the “% escape loss” value stood at 3% and the “% Inhibition CAR” value is recorded as -41%.
`CC(C)Oc1ccccc1N1CCN(Cc2ccc(CN3CCCCC3=O)s2)CC1` [CP #5, 1-[[5-[[1-[2-(1-Methylethoxy)phenyl-4-piperazinyl]methyl]-2-thienyl]methyl]-2-piperidinone Hydrochloride]: where the note is “5 mpk, PI”, the “% escape loss” value was determined as 3% and the “% Inhibition CAR” value is -58%.
For the molecule `O=C1CCCCN1Cc1ccc(CN2CCN(c3cccc4ccoc34)CC2)s1` [CP #6, 1-[[5-[[1-(7-Benzofuranyl)-4-piperazinyl]methyl]-2-thienyl]methyl]-2-piperidinone1.5 Fumarate Hydrate], for the setting “5 mpk, PI”, the “% escape loss” value is listed as 5% and the “% Inhibition CAR” value is on record as -63%.
`CC(C)Oc1ccccc1N1CCN(Cc2cccc(CN3CCCCC3=O)n2)CC1` [CP #7, 1-[[6-[[1-[2-(Methylethoxy)phenyl]-4-piperazinyl]methyl]pyridinyl]methyl]-2-piperidinone Hydrochloride]: for the setting “15 mpk”, the “% escape loss” value worked out at 0% and the “% Inhibition CAR” value was -85%.
